Laboratory results taken from US10813906B2, “Use of ferrous amino acid chelate to treat infection by enteropathogen and to enhance growth performance” (Profeat Biotechnology Co., Ltd., priority 2018, dated 2020).

Key:
[1] = Growth performance of chickens fed mixed feed for 12 weeks; type: in vivo, Taiwan black-feather country chickens; conditions: for Body weight: mean ± S.D., 20 g of Fe per 1000 kg of mixed feed; for ADG (average daily gain) / FE (feed efficiency, ratio of total feed intake to total body weight): Week 12, 20 g of Fe per 1000 kg of mixed feed
Source text: The experimental chickens were randomly divided into a control group and an experimental group (n=40/group), and each group was placed in a pen with a size of 6.5 m^2. Water was provided ad libitum for all of the experimental chickens. […] The mixed feed supplied to the control group was made from a basal diet and a ferrous sulfate (20 g of Fe per 1000 kg of the mixed feed). The mixed feed supplied to the experimental group was made from the basal diet and the ferrous amino acid chelate prepared as described in the section, entitled “1. […] The body weight of each chicken was determined before and after supply of the mixed feed. Subsequently, average daily gain (ADG) of the chickens in each group was calculated based on the body weight and the feed intake. Feed efficiency (FE) defined as a ratio of total feed intake to total body weight was also calculated. The experimental data were analyzed via Student's t-test so as to assess the difference between the test groups. Statistical significance is indicated by p<0.05.

Escherichia coli = test: Enteropathogen infection in chickens, real time PCR of feces: Escherichia coli; type: in vivo, Taiwan black-feather country chickens; conditions: Week 10, feces from cloaca
Salmonella spp. = test: Enteropathogen infection in chickens, real time PCR of feces: Salmonella spp.; type: in vivo, Taiwan black-feather country chickens; conditions: Week 10, feces from cloaca
Source text: Taiwan black-feather country chickens (1 day of age) were purchased from Animal Research Farm in National Chia-Yi University (Taiwan), and were raised in a farm under the guidelines of Animal Care Committee of the Council of Agriculture, Taiwan. The experimental chickens were randomly divided into a control group and an experimental group (n=40/group), and each group was placed in a pen with a size of 6.5 m^2. Water was provided ad libitum for all of the experimental chickens.
Each of the experimental chickens was fed with a mixed feed for 12 weeks at a dose of 0.1 kg per day. The mixed feed supplied to the control group was made from a basal diet and a ferrous sulfate (20 g of Fe per 1000 kg of the mixed feed). The mixed feed supplied to the experimental group was made from the basal diet and the ferrous amino acid chelate prepared as described in the section, entitled “1. Preparation of ferrous amino acid chelate” of the “General Experimental Materials” (20 g of Fe per 1000 kg of the mixed feed).
Moreover, during supply of the mixed feed, fifteen chickens were randomly chosen at a designated time point to collect the feces from the cloaca thereof using cotton swabs.
In addition, the obtained feces were subjected to nucleic acid extraction with Taco™ DNA/RNA Extraction Kit (GeneReach Biotechnology Corp) according to the manufacturer's instructions. […]

Clostridium perfringens = type: in vivo, Taiwan black-feather country chickens; conditions: Week 6; feces from cloaca, real time PCR
Coccidia = Coccidia infestation in chickens, microscopic observation of feces; type: in vivo, Taiwan black-feather country chickens; conditions: Week 6
Source text: The experimental chickens were randomly divided into a control group and an experimental group (n=40/group), and each group was placed in a pen with a size of 6.5 m^2. Water was provided ad libitum for all of the experimental chickens. […] The mixed feed supplied to the control group was made from a basal diet and a ferrous sulfate (20 g of Fe per 1000 kg of the mixed feed). The mixed feed supplied to the experimental group was made from the basal diet and the ferrous amino acid chelate prepared as described in the section, entitled “1. […] Moreover, during supply of the mixed feed, fifteen chickens were randomly chosen at a designated time point to collect the feces from the cloaca thereof using cotton swabs. Coccidia infestation is determined by microscopic observation of the obtained feces sample.

[2] = Growth performance of postweaning piglets fed mixed feed for 8 weeks; type: in vivo; conditions: for ADFI (average daily feed intake) / ADG (average daily gain) / FE (feed efficiency, ratio of ADFI to ADG) / Total feed intake: age 4 to 12 weeks; for Body weight: mean ± S.D.; for Total feed intake: whole group
Source text: About 1000 male piglets and 1000 female piglets (purchased from HAIFUNG ranch, Yunlin County, Taiwan and bred in the nursery) were used in the following experiment. The experimental piglets were randomly divided into an experimental group and a control group, and sufficient water and feed were supplied to the experimental piglets. […] The mixed feed supplied to the experimental group was made from the basal diet and the ferrous amino acid chelate prepared as described in the section, entitled “1. […] Subsequently, average daily gain (ADG) and average daily feed intake (ADFI) of the postweaning piglets in each group were calculated based on the body weight and the total feed intake. Feed efficiency (FE) defined as a ratio of ADFI to ADG was also calculated. The experimental data were expressed as mean±S.D., and were analyzed via Student's t-test so as to assess the difference between the test groups. Statistical significance is indicated by p<0.05.

[3] = Week 0 (before supply of the mixed feed)
[4] = age 4 weeks (at weaning, start of the mixed feed)
[5] = age 12 weeks, after 8 weeks of mixed feed (basal diet:iron source 1000:1)

ferrous glycinate chelate [ferrous amino acid chelate]
Body weight [1, 3]: 32.48 ± 3.49 g
ADG (average daily gain) [1]: 25.44 g/day per chicken
FE (feed efficiency, ratio of total feed intake to total body weight) [1]: 3.59
Body weight ([1]; Week 12 of mixed feed): 2143.71 ± 250.23 g
Enteropathogen infection, Escherichia coli (percentage of infection among 15 selected chickens) (Escherichia coli): 27%
Enteropathogen infection, Salmonella spp. (percentage of infection among 15 selected chickens) (Salmonella spp.): 53%
Enteropathogen infection, Clostridium perfringens (percentage of infection among 15 selected chickens) (Clostridium perfringens): 0%
Enteropathogen infection, Coccidia (percentage of infection among 15 selected chickens) (Coccidia): 33%
ADFI (average daily feed intake) [2]: 0.78 kg/day per piglet
ADG (average daily gain) [2]: 0.40 kg/day per piglet
FE (feed efficiency, ratio of ADFI to ADG) [2]: 1.93
Body weight [2, 4]: 9.08 ± 0.94 kg
Body weight [2, 5]: 32.84 ± 4.01 kg
Total feed intake [2]: 36,500 kg

ferrous sulfate
Body weight [1, 3]: 31.06 ± 2.94 g
ADG (average daily gain) [1]: 23.3 g/day per chicken
FE (feed efficiency, ratio of total feed intake to total body weight) [1]: 3.88
Body weight ([1]; Week 12 of mixed feed): 1965 ± 194.44 g
Enteropathogen infection, Escherichia coli (percentage of infection among 15 selected chickens) (Escherichia coli): 93%
Enteropathogen infection, Salmonella spp. (percentage of infection among 15 selected chickens) (Salmonella spp.): 93%
Enteropathogen infection, Clostridium perfringens (percentage of infection among 15 selected chickens) (Clostridium perfringens): 33%
Enteropathogen infection, Coccidia (percentage of infection among 15 selected chickens) (Coccidia): 100%
ADFI (average daily feed intake) [2]: 0.85 kg/day per piglet
ADG (average daily gain) [2]: 0.30 kg/day per piglet
FE (feed efficiency, ratio of ADFI to ADG) [2]: 2.80
Body weight [2, 4]: 8.40 ± 1.17 kg
Body weight [2, 5]: 28.00 ± 4.28 kg
Total feed intake [2]: 33,255 kg
